Source: patent publication US9051342B2 (priority 2004, dated 2015)
“And” between values parts separate entries of the source, which are not always exact repeats. Identical values can stand only once.

melting point | SMILES
228 to 230 °C | O=C(O)c1cccc(-n2cc(-c3cccc(F)c3)cn2)c1 [Compound 213, 3-[4-(3-Fluoro-phenyl)-pyrazol-1-yl]-benzoic acid]
291 to 293 °C | O=C(O)c1ccc(-n2cc(-c3ccc(F)cc3F)cn2)cc1 [Compound 104, 4-[4-(2,4-Difluoro-phenyl)-pyrazol-1-yl]-benzoic acid]
143 to 145 °C | COC(=O)c1cccc(-n2ccc(-c3cccc(C#N)c3)n2)c1 [Compound 64, 3-[3-(3-Cyano-phenyl)-pyrazol-1-yl]-benzoic acid methyl ester]
200 to 202 °C | COc1cccc(-c2ccn(-c3ccc(C(=O)O)cc3)n2)c1 [Compound 221, 4-[3-(3-Methoxy-phenyl)-pyrazol-1-yl]-benzoic acid]
230 to 235 °C | O=C(O)c1cccc(-n2ccc(-c3ccc(Cl)cc3)n2)c1 [Compound 80, 3-[3-(4-Chloro-phenyl)-pyrazol-1-yl]-benzoic acid]
240 to 244 °C | O=C(O)c1cccc(-c2ccn(-c3ccc(F)c(F)c3)n2)c1 [Compound 68, 3-[1-(3,4-Difluoro-phenyl)-1H-pyrazol-3-yl]-benzoic acid]
157 to 158 °C | O=C(O)c1cccc(-c2ccn(-c3ccccc3F)n2)c1 [Compound 86, 3-[1-(2-Fluoro-phenyl)-1H-pyrazol-3-yl]-benzoic acid]
231 to 233 °C | O=C(O)c1ccc(-c2ccn(-c3ccc(F)c(F)c3)c2)cc1 [Compound 127, 4-[1-(3,4-Difluoro-phenyl)-1H-pyrrol-3-yl]-benzoic acid]
222 to 223 °C | COc1cccc(-c2cnn(-c3ccc(C(=O)O)cc3)c2)c1 [Compound 109, 4-[4-(3-Methoxy-phenyl)-pyrazol-1-yl]-benzoic acid]
209 to 211 °C | O=C(O)c1ccc(-c2ccn(-c3cccc(C(F)(F)F)c3)c2)cc1 [Compound 128, 4-[1-(3-Trifluoromethyl-phenyl)-1H-pyrrol-3-yl]-benzoic acid]
241 to 244 °C | O=C(O)c1cccc(-c2ncn(-c3ccccn3)n2)c1 [Compound 36, 3-(1-Pyridin-2-yl-1H-[1,2,4]triazol-3-yl)-benzoic acid]
325 to 326 °C | O=C(O)c1cccc(-n2cc(-c3cnc4ccccc4n3)cn2)c1 [Compound 122, 3-(4-Quinoxalin-2-yl-pyrazol-1-yl)-benzoic acid]
200 to 202 °C | COc1ccccc1-n1ccc(-c2ccc(C(=O)O)cc2)c1 [Compound 193]
200 to 202 °C | O=C(O)c1cccc(-c2cnn(-c3ccc(F)cc3F)c2)c1 [Compound 179, 3-[1-(2,4-Difluoro-phenyl)-1H-pyrazol-4-yl]-benzoic acid]
166 to 168 °C | O=C(O)c1cccc(-n2cc(-c3cccc(OC(F)(F)F)c3)cn2)c1 [Compound 209, 3-[4-(3-Trifluoromethoxy-phenyl)-pyrazol-1-yl]-benzoic acid]
220 to 222 °C | O=C(O)c1ccc(-n2cc(-c3cccc(OC(F)F)c3)cn2)cc1 [Compound 214]
211 to 212 °C | COc1cccc(-n2cc(-c3ccc(C(=O)O)cc3)cn2)c1 [Compound 171, 4-[1-(3-Methoxy-phenyl)-1H-pyrazol-4-yl]-benzoic acid]
300 to 302 °C | O=C(O)c1ccc(-n2cc(-c3ccc(Cl)cc3)cn2)cc1 [Compound 52, 4-[4-(4-Chloro-phenyl)-pyrazol-1-yl]-benzoic acid]
212 to 213 °C | Cc1cccc(-n2ccc(-c3ccc(C(=O)O)cc3)c2)c1 [Compound 194, 4-(1-m-Tolyl-1H-pyrrol-3-yl)-benzoic acid]
210 to 212 °C | O=C(O)c1cccc(-c2ccn(-c3ccc(OCc4ccccc4)cc3)n2)c1 [Compound 176, 3-[1-(4-Benzyloxy-phenyl)-1H-pyrazol-3-yl]-benzoic acid]
300 to 302 °C | O=C(O)c1cccc(-n2cc(-c3ccncc3)cn2)c1 [Compound 115, 3-(4-Pyridin-4-yl-pyrazol-1-yl)-benzoic acid]
110 to 112 °C | COc1ccc(-n2ccc(-c3cccc(C#N)c3)n2)cc1 [Compound 58, 3-[1-(4-Methoxy-phenyl)-1H-pyrazol-3-yl]-benzonitrile]
308 to 310 °C | O=C(O)c1ccc(-n2cc3c(n2)-c2ccccc2OC3)cc1 [Compound 162]
157 to 158 °C | COc1cccc(-c2cnn(-c3cccc(C(=O)O)c3)c2)c1 [Compound 112, 3-[4-(3-Methoxy-phenyl)-pyrazol-1-yl]-benzoic acid]
177 to 178 °C | O=C(O)c1cccc(-n2cc(-c3cccc(Br)c3)cn2)c1 [Compound 88, 3-[4-(3-Bromo-phenyl)-pyrazol-1-yl]-benzoic acid]
225 to 227 °C | COc1ccc2c(c1)-c1nn(-c3cccc(C(=O)O)c3)cc1C2 [Compound 140, 3-(7-Methoxy-4H-indeno[1,2-c]pyrazol-2-yl)-benzoic acid]

melting point | SMILES
311 to 312 °C | CC(C)c1ccc(-c2cn(-c3ccc(C(=O)O)cc3)nn2)cc1 [Compound 275, 4-[4-(4-Isopropyl-phenyl)-[1,2,3]triazol-1-yl]-benzoic acid]
176 to 178 °C | CCc1ccccc1-n1cnc(-c2cccc(C(=O)O)c2)n1 [Compound 21, 3-[1-(2-Ethyl-phenyl)-1H-[1,2,4]triazol-3-yl]-benzoic acid]
217 to 218 °C | COc1ccc2c(c1)CCc1cn(-c3cccc(C(=O)O)c3)nc1-2 [Compound 142, 3-(7-Methoxy-4,5-dihydro-benzo[g]indazol-2-yl)-benzoic acid]
238 to 240 °C | O=C(O)c1ccc(-c2cnn(-c3ccc4c(c3)OCCO4)c2)cc1 [Compound 226, 4-[1-(2,3-Dihydro-benzo[1,4]dioxin-6-yl)-1H-pyrazol-4-yl]-benzoic acid]
286 to 288 °C | O=C(O)c1ccc(-n2cc(-c3ccc4c(c3)OCO4)cn2)cc1 [Compound 205, 4-(4-Benzo[1,3]dioxol-5-yl-pyrazol-1-yl)-benzoic acid]
225 to 227 °C and 223 to 225 °C | COc1ccc(-n2cc(-c3cccc(C(=O)O)c3)cn2)cc1 [Compound 97]
> 310 °C | O=C(O)c1cccc(-c2ncn(-c3ccc(Br)cc3)n2)c1 [Compound 22, 3-[1-(4-Bromo-phenyl)-1H-[1,2,4]triazol-3-yl]-benzoic acid]
229 to 231 °C | Cc1ccc(-n2cc(-c3cccc(C(=O)O)c3)cn2)cc1 [Compound 177, 3-(1-p-Tolyl-1H-pyrazol-4-yl)-benzoic acid]
243 to 246 °C | COc1ccc(-c2ccc(-n3cnc(-c4cccc(C(=O)O)c4)n3)cc2)cc1 [Compound 27, 3-[1-(4′-Methoxy-biphenyl-4-yl)-1H-[1,2,4]triazol-3-yl]-benzoic acid]
269 to 272 °C | Cc1ccc(-n2cnc(-c3cccc(C(=O)O)c3)n2)cc1Cl [Compound 38, 3-[1-(3-Chloro-4-methyl-phenyl)-1H-[1,2,4]triazol-3-yl]-benzoic acid]
> 350 °C | O=C(O)c1ccc(-n2cc(-c3ccncn3)cn2)cc1 [Compound 118, 4-(4-Pyrimidin-4-yl-pyrazol-1-yl)-benzoic acid]
246 to 248 °C | O=C(O)c1cccc(-n2cc3c(n2)Cc2ccccc2-3)c1 [Compound 146, 3-(8H-Indeno[2,1-c]pyrazol-2-yl)-benzoic acid]
215 to 218 °C | O=C(O)c1ccc(-c2ccn(-c3cc(F)ccc3F)c2)cc1 [Compound 245, 4-[1-(2,5-Difluoro-phenyl)-1H-pyrrol-3-yl]-benzoic acid]
252 to 254 °C | CC(C)c1ccc(-c2nn(-c3ccc(C(=O)O)cc3)c(=O)o2)cc1 [Compound 277, 4-[5-(4-Isopropyl-phenyl)-2-oxo-[1,3,4]oxadiazol-3-yl]-benzoic acid]
253 to 255 °C | O=C(O)c1cccc(-c2ncn(-c3cccc(Br)c3)n2)c1 [Compound 35, 3-[1-(3-Bromo-phenyl)-1H-[1,2,4]triazol-3-yl]-benzoic acid]
290 to 291 °C and 290 to 292 °C | O=C(O)c1cccc(-c2ncn(-c3ccc(F)cc3F)n2)c1 [Compound 16, 3-[1-(2,4-Difluoro-phenyl)-1H-[1,2,4]triazol-3-yl]-benzoic acid]
209 to 211 °C | Cc1ccc(-n2cc(-c3cccc(C(=O)O)c3)cn2)cc1Cl [Compound 230, 3-[1-(3-Chloro-4-methyl-phenyl)-1H-pyrazol-4-yl]-benzoic acid]
200 to 202 °C | O=C(O)c1ccc(-c2ccn(-c3cccs3)n2)cc1 [Compound 259, 4-(1-Thiophen-2-yl-1H-pyrazol-3-yl)-benzoic acid]
228 to 230 °C | O=C(O)c1cccc(-c2ccn(-c3ccc(O)cc3)n2)c1 [Compound 74, 3-[1-(4-Hydroxy-phenyl)-1H-pyrazol-3-yl]-benzoic acid]
273 to 275 °C | O=C(O)c1cccc(-n2ncc3c2CCc2ccccc2-3)c1 [Compound 135, 3-(4,5-Dihydro-benzo[e]indazol-3-yl)-benzoic acid]
260 to 261 °C | O=C(O)c1ccc(-n2cc(-c3ccccc3F)cn2)cc1 [Compound 85, 4-[4-(2-Fluoro-phenyl)-pyrazol-1-yl]-benzoic acid]
193 to 194 °C | O=C(O)c1cccc(-c2ccn(-c3cc(F)ccc3F)c2)c1 [Compound 242, 3-[1-(2,5-Difluoro-phenyl)-1H-pyrrol-3-yl]-benzoic acid]
180 to 182 °C | Cc1ccc(-c2ccn(-c3cccc(C(=O)O)c3)n2)cc1 [Compound 170, 3-(3-p-Tolyl-pyrazol-1-yl)-benzoic acid]
295 to 298 °C | Cc1nc(-c2cccc(C(=O)O)c2)nn1-c1ccc(Br)cc1 [Compound 33, 3-[1-(4-Bromo-phenyl)-5-methyl-1H-[1,2,4]triazol-3-yl]-benzoic acid]
219 to 221 °C | O=C(O)c1cccc(-c2ncn(-c3ccc(OC(F)(F)F)cc3)n2)c1 [Compound 19, 3-[1-(4-Trifluoromethoxy-phenyl)-1H-[1,2,4]triazol-3-yl]-benzoic acid]
